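Interpolation was linear, between the two tested concentrations surrounding the appropriate level; five concentrations were tested over 48 hours in 96-well plates. GI50 is the concentration that inhibits growth by half.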 Calls of active or inactive are those of the source. Cut-off read from the data, not from the text of the source: active = GI50 up to about 1.1 µM and inactive = higher.
What was measured:
Experiment in all cases: growth of human tumour cells (NCI), 48 h
[1] = system: SK-MEL-5
[2] = system: HCC 2998
[3] = system: HOP-62
[4] = system: PC-3
[5] = system: NCI-H226
[6] = system: MOLT-4
[7] = system: ACHN
[8] = system: NCI/ADR-RES
[9] = system: SK-MEL-28
[10] = system: SNB-19
[11] = system: SF-295
[12] = system: UO-31
[13] = system: OVCAR-4
[14] = system: HT-29
[15] = system: COLO 205
[16] = system: UACC-257
[17] = system: M14
[18] = system: 786-0
[19] = system: T47D
[20] = system: A549

Compound	GI50 [1]	GI50 [2]	GI50 [3]	GI50 [4]	GI50 [5]	GI50 [6]	GI50 [7]	GI50 [8]	GI50 [9]	GI50 [10]	GI50 [11]	GI50 [12]	GI50 [13]	GI50 [14]	GI50 [15]	GI50 [16]	GI50 [17]	GI50 [18]	GI50 [19]	GI50 [20]
COC1(CC[C@H](C)COC2OC(CO)C(O)C(O)C2O)O[C@H]2C[C@H]3[C@@H]4CC=C5C[C@@H](OC6OC(CO)C(OC7OC(C)C(O)C(O)C7O)C(O)C6OC6OC(C)C(O)C(O)C6O)CC[C@]5(C)[C@H]4CC[C@]3(C)[C@H]2[C@@H]1C (stereo partly drawn)	4.98 µM (inactive)	6.32 µM (inactive)	1.87 µM (inactive)	3.28 µM (inactive)	5.73 µM (inactive)	> 23.5 µM (inactive)	12 µM (inactive)	3.67 µM (inactive)	3.77 µM (inactive)	3.46 µM (inactive)	4.29 µM (inactive)	2.47 µM (inactive)	3.78 µM (inactive)	2.52 µM (inactive)	6.25 µM (inactive)	5.51 µM (inactive)	3.12 µM (inactive)	2.42 µM (inactive)	2.45 µM (inactive)	1.99 µM (inactive)
C/C(=C\c1ccc2c(c1)OCO2)[N+](=O)[O-]	1.91 µM (inactive)	3.54 µM (inactive)	3.56 µM (inactive)	2.64 µM (inactive)	3.84 µM (inactive)	0.195 µM (active)	2.01 µM (inactive)	6.04 µM (inactive)	2.74 µM (inactive)	2.49 µM (inactive)	2.85 µM (inactive)	1.19 µM (inactive)	4.4 µM (inactive)	2.98 µM (inactive)	1.66 µM (inactive)	2.43 µM (inactive)	3.65 µM (inactive)	1.56 µM (inactive)	1.64 µM (inactive)	4.2 µM (inactive)
CNC(=O)N(C)C(=O)c1ccccc1C(=O)N(C)C(=O)NC	> 10 µM (inactive)	> 10 µM (inactive)	> 10 µM (inactive)	> 10 µM (inactive)	> 10 µM (inactive)	> 10 µM (inactive)	> 10 µM (inactive)	> 10 µM (inactive)	> 10 µM (inactive)	> 10 µM (inactive)	> 10 µM (inactive)	> 10 µM (inactive)	> 10 µM (inactive)	> 10 µM (inactive)	> 10 µM (inactive)	> 10 µM (inactive)	> 10 µM (inactive)	> 10 µM (inactive)	> 10 µM (inactive)	> 10 µM (inactive)
Nc1c(C(=O)O)nnc2ccc(Cl)cc12	> 100 µM (inactive)	> 100 µM (inactive)	> 100 µM (inactive)	> 100 µM (inactive)	41.8 µM (inactive)	> 100 µM (inactive)	> 100 µM (inactive)	> 100 µM (inactive)	–	> 100 µM (inactive)	> 100 µM (inactive)	94.8 µM (inactive)	> 100 µM (inactive)	> 100 µM (inactive)	> 100 µM (inactive)	> 100 µM (inactive)	> 100 µM (inactive)	> 100 µM (inactive)	> 100 µM (inactive)	> 100 µM (inactive)
NC(=O)NC(=O)c1cccc(NC(=O)CF)c1	> 100 µM (inactive)	> 100 µM (inactive)	> 100 µM (inactive)	> 100 µM (inactive)	73.5 µM (inactive)	> 100 µM (inactive)	> 100 µM (inactive)	> 100 µM (inactive)	> 100 µM (inactive)	> 100 µM (inactive)	> 100 µM (inactive)	31 µM (inactive)	> 100 µM (inactive)	> 100 µM (inactive)	> 100 µM (inactive)	> 100 µM (inactive)	41.4 µM (inactive)	> 100 µM (inactive)	> 100 µM (inactive)	> 100 µM (inactive)
Clc1cc(C(c2cc(Cl)sc2Cl)c2cc(Cl)sc2Cl)c(Cl)s1	> 100 µM (inactive)	> 100 µM (inactive)	> 100 µM (inactive)	> 100 µM (inactive)	> 100 µM (inactive)	> 81.7 µM (inactive)	> 100 µM (inactive)	> 100 µM (inactive)	> 100 µM (inactive)	> 100 µM (inactive)	> 100 µM (inactive)	> 100 µM (inactive)	> 100 µM (inactive)	> 100 µM (inactive)	> 100 µM (inactive)	> 100 µM (inactive)	> 100 µM (inactive)	> 100 µM (inactive)	> 100 µM (inactive)	> 100 µM (inactive)
CCOC(=O)c1c(-c2ccccc2)nc2c(OC)nccn12	61.1 µM (inactive)	> 100 µM (inactive)	> 100 µM (inactive)	> 100 µM (inactive)	> 100 µM (inactive)	14.5 µM (inactive)	–	> 100 µM (inactive)	> 100 µM (inactive)	> 100 µM (inactive)	> 100 µM (inactive)	20.5 µM (inactive)	> 100 µM (inactive)	> 100 µM (inactive)	> 100 µM (inactive)	> 100 µM (inactive)	> 100 µM (inactive)	> 100 µM (inactive)	25.4 µM (inactive)	> 100 µM (inactive)
O=C(O)c1ccc(NNc2cc(=O)[nH]c(=O)[nH]2)cc1	> 100 µM (inactive)	> 100 µM (inactive)	> 100 µM (inactive)	24.4 µM (inactive)	> 100 µM (inactive)	> 100 µM (inactive)	> 100 µM (inactive)	> 100 µM (inactive)	> 100 µM (inactive)	> 100 µM (inactive)	> 100 µM (inactive)	> 100 µM (inactive)	> 100 µM (inactive)	> 100 µM (inactive)	> 100 µM (inactive)	> 100 µM (inactive)	> 100 µM (inactive)	> 100 µM (inactive)	> 100 µM (inactive)	> 100 µM (inactive)
O=[N+]([O-])/C=C/c1cc(Cl)c(/C=C/[N+](=O)[O-])cc1Cl	3.53 µM (inactive)	1.53 µM (inactive)	3.77 µM (inactive)	2.55 µM (inactive)	2.06 µM (inactive)	0.434 µM (active)	1.57 µM (inactive)	2.79 µM (inactive)	1.68 µM (inactive)	2.37 µM (inactive)	4.68 µM (inactive)	1.49 µM (inactive)	1.87 µM (inactive)	2.5 µM (inactive)	1.95 µM (inactive)	1.89 µM (inactive)	1.87 µM (inactive)	1.16 µM (inactive)	2.03 µM (inactive)	4.63 µM (inactive)
Cn1c(-c2ccc(-c3cc(-c4cccs4)c(-c4cccs4)n3C)cc2)cc(-c2cccs2)c1-c1cccs1	> 100 µM (inactive)	> 100 µM (inactive)	> 100 µM (inactive)	> 100 µM (inactive)	> 100 µM (inactive)	> 100 µM (inactive)	> 100 µM (inactive)	> 100 µM (inactive)	> 100 µM (inactive)	> 100 µM (inactive)	> 100 µM (inactive)	> 100 µM (inactive)	> 100 µM (inactive)	> 100 µM (inactive)	> 100 µM (inactive)	> 100 µM (inactive)	> 100 µM (inactive)	> 100 µM (inactive)	> 100 µM (inactive)	> 100 µM (inactive)

Source: ChEMBL document CHEMBL1201862, “PubChem BioAssay data set” (2004)
